Where two headings read alike, the source gives them in different places.
What was measured:
Format in all cases: cell-based
[1] = test system: lung cancer cell line NCI-H23; assay: Minimal effective concentration that elicits polyploidy, NCI-H23; conditions: Homo sapiens, read-out: MECP: Minimal effective concentration that elicits polyploidy
[2] = test system: gastric cancer cell line NCI-N87; assay: Minimal effective concentration that elicits polyploidy, NCI-N87; conditions: Homo sapiens, read-out: MECP: Minimal effective concentration that elicits polyploidy
RPEMYC^H2B-GFP cells [3] = assay: Mechanism-informed phenotypic screening assay (mitotic arrest, polyploidy; GE IN-Cell Analyzer 2000); conditions: 20 nM to 20 μM, 24, 48 or 72 hours, read-out: Mitotic Arrest (≥5%)
[4] = test system: gastric cancer cell line NCI-N87; assay: MTT assay of cellular proliferation, NCI-N87; conditions: Homo sapiens, read-out: EC50: Concentration that inhibits 50% of proliferation
Protocol: (§1) Six lung cancer cell lines (NCI-H23, NCI-H460, NCI-H596, NCI-H2170, Calu-6 and A549), two colon cancer cell lines (HCT116 and SW460), one breast cancer cell line MDA-MB-231, one gastric cancer cell line NCI-N87, one prostate cancer cell line DU145, one cervical cancer cell line Hela, and one glioblastoma cell line T98G were obtained from ATCC. The T2 HCC cell line was derived from a mouse liver cancer model initiated by a transgene of MYC (Reference). All cell lines were cultured in DMEM (Gibco, Cleveland, TN, USA) supplemented with 5% fetal bovine serum (Gibco), penicillin (100 U/mL)-streptomycin (100 μg/mL) (Gibco, Cat. No. 15140-122), 2 mM L-glutamine (Gibco, 200 mM solution, Cat. No. 25030081), and 1 mM sodium pyruvate (Gibco, 100 mM solution, Cat. No. 11360070) at 37° C. in a humidified incubator that was maintained at 5% CO2.
(§2) The MTT assay measures cellular metabolic activity as a proxy for cell viability and involves the conversion of the water-soluble yellow dye MTT [3-(4,5-dimethylthiazol-2-yl)-2,5-diphenyltetrazolium bromide] into an insoluble purple formazan by the action of mitochondrial reductase. Formazan is then solubilized and its concentration is determined by measuring the optical density (OD) value at a wavelength of 570 nm. The value is in proportional to the number of live cells with excellent linearity up to ˜10^6 cells per well. The MTT assay was used to determine the EC50 value, the concentration of a compound that leads to 50% inhibition of cellular proliferation. Briefly, cells were split when growing to the mid-Log phase. Cells in 100 μL of culture medium were seeded into each well of 96-well microplates and cultivated for 15˜24 hours to reach a confluence of 20˜30% and were then exposed to drugs at concentrations ranging from 1 nM to 10 μM. At the endpoint, 20 μL of a MTT stock solution in DMSO (5 mg/mL) was added to each well that contains […] of DMEM. The microplates were left in the cell culture incubator for 3˜4 h before subjected to solubilization and determination of formazan at A570 in a microplate reader (BioTek ELX808iu). […] Therefore, these compounds might hold a broad utility in the treatment of a large variety of human malignancies.

[5] = test system: breast cancer cell line MDA-MB-231; assay: Minimal effective concentration that elicits polyploidy, MDA-MB-231; conditions: Homo sapiens, read-out: MECP: Minimal effective concentration that elicits polyploidy
SW480 = assay: Minimal effective concentration that elicits polyploidy, SW480; conditions: Homo sapiens, read-out: MECP: Minimal effective concentration that elicits polyploidy
[6] = test system: liver cancer cell line T2 HCC; assay: Minimal effective concentration that elicits polyploidy, T2 HCC; conditions: Mus musculus, read-out: MECP: Minimal effective concentration that elicits polyploidy
[7] = test system: liver cancer cell line T2 HCC; assay: MTT assay of cellular proliferation, T2 HCC; conditions: Mus musculus, read-out: EC50: Concentration that inhibits 50% of proliferation
Protocol: as §1, §2

[8] = test system: colon cancer cell line SW460; assay: MTT assay of cellular proliferation, SW460; conditions: Homo sapiens, SW480; read-out: EC50: Concentration that inhibits 50% of proliferation
Protocol: as §1, §2

[9] = test system: lung cancer cell line A549; assay: Minimal effective concentration that elicits polyploidy, A549; conditions: Homo sapiens, read-out: MECP: Minimal effective concentration that elicits polyploidy
[10] = test system: lung cancer cell line NCI-H23; assay: MTT assay of cellular proliferation, NCI-H23; conditions: Homo sapiens, read-out: EC50: Concentration that inhibits 50% of proliferation
Protocol: as §1, §2

RPEMYC^H2B-GFP cells [11] = assay: Mechanism-informed phenotypic screening assay (mitotic arrest, polyploidy; GE IN-Cell Analyzer 2000); conditions: 20 nM to 20 μM, 24, 48 or 72 hours, read-out: Min. Effective conc. for polyploidy (≥5%)
Protocol: We have Previously Developed a Mechanism-Informed Phenotypic Screening Assay to identify novel antimitotic agents (Li et al. 2019). Equipped with a prior understanding of the versatile functions of the chromosomal passenger protein (CPP) complex in orchestrating karyokinesis and cytokinesis, the screening assay is to score for phenotypes typically seen when the CPP complex is disabled. Specifically, the parameters for a positive hit are a temporary elevation of mitotic index (MI) at 24 hours of drug treatment and an accumulation of polyploid cells at 48 hours of drug treatment, indicative of mitotic arrest and cytokinetic failure respectively. These parameters exclude compounds that elicit only a prolonged arrest of cells in mitosis, a phenotype typically provoked by spindle toxins. The screening procedure is briefly summarized here. RPEMYC^H2B-GFP cells engineered to express a Histone 2B-EGFP fusion protein were passaged as batches of 96-well plates, 18-24 hours before exposure to the chemical compounds of the present disclosure at concentrations from 20 nM to 20 μM. At 24, 48 or 72 hours after initiation of treatment, cells were analyzed for either an arrest in mitosis or a change in DNA content by GE IN-Cell Analyzer 2000. As set forth in table 2 below, a value of greater than or equal to […] and less than or equal to 1.0 μM is marked e “A”; a value greater than […] and less than or equal to 10.0 μM is marked “B”; a value greater than 10.0 μM and less than or equal to 30.0 μM is marked “C”; and a value greater than 30.0 μM is marked “D.”

[12] = test system: cervical cancer cell line Hela; assay: Minimal effective concentration that elicits polyploidy, Hela; conditions: Homo sapiens, read-out: MECP: Minimal effective concentration that elicits polyploidy
[13] = test system: breast cancer cell line MDA-MB-231; assay: MTT assay of cellular proliferation, MDA-MB-231; conditions: Homo sapiens, read-out: EC50: Concentration that inhibits 50% of proliferation
Protocol: as §1, §2

[14] = test system: colon cancer cell line HCT116; assay: MTT assay of cellular proliferation, HCT116; conditions: Homo sapiens, HCT-116, read-out: EC50: Concentration that inhibits 50% of proliferation
Protocol: as §1, §2

[15] = test system: colon cancer cell line HCT116; assay: Minimal effective concentration that elicits polyploidy, HCT116; conditions: Homo sapiens, HCT-116, read-out: MECP: Minimal effective concentration that elicits polyploidy
[16] = test system: cervical cancer cell line Hela; assay: MTT assay of cellular proliferation, Hela; conditions: Homo sapiens, read-out: EC50: Concentration that inhibits 50% of proliferation
Protocol: as §1, §2

[17] = test system: lung cancer cell line A549; assay: MTT assay of cellular proliferation, A549; conditions: Homo sapiens, read-out: EC50: Concentration that inhibits 50% of proliferation
Protocol: as §1, §2

SMILES	EC50 [4] [nM]	EC50 [7] [nM]	EC50 [8] [nM]	EC50 [10] [nM]	EC50 [13] [nM]	EC50 [14] [nM]	EC50 [16] [nM]	EC50 [17] [nM]	minimal effective concentration [1] [µM]	minimal effective concentration [2] [µM]	minimal effective concentration (RPEMYC^H2B-GFP cells [3]) [µM]	minimal effective concentration [5] [µM]	minimal effective concentration (SW480) [µM]	minimal effective concentration [6] [µM]	minimal effective concentration [9] [µM]	minimal effective concentration (RPEMYC^H2B-GFP cells [11]) [µM]	minimal effective concentration [12] [µM]	minimal effective concentration [15] [µM]
CNC(=O)c1cc(OC)cc(Oc2ncccc2-c2ccncc2)c1 [Compound 4, 3-([3,4′-bipyridin]-2-yloxy)-5-methoxy-N-methylbenzamide]	1000 to 10000	1 to 1000	1 to 1000	1 to 1000	1 to 1000	1 to 1000	1 to 1000	1 to 1000	0.001 to 1	0.001 to 1	1	0.001 to 1	0.001 to 1	0.001 to 1	0.001 to 1	1	0.001 to 1	0.001 to 1
CNC(=O)c1cc(Oc2ncccc2-c2ccncc2)cc(OC(F)(F)F)c1 [Compound 7, 3-([3,4′-bipyridin]-2-yloxy)-N-methyl-5-(trifluoromethoxy)benzamide]	1 to 1000	1 to 1000	1 to 1000	1 to 1000	1 to 1000	1 to 1000	1 to 1000	1 to 1000	0.001 to 1	0.001 to 1	1	0.001 to 1	0.001 to 1	0.001 to 1	0.001 to 1	1	0.001 to 1	0.001 to 1
CNC(=O)c1cc(Oc2ncccc2-c2ccncc2)cc(C(F)(F)F)c1 [Compound 8, 3-([3,4′-bipyridin]-2-yloxy)-N-methyl-5-(trifluoromethyl)benzamide]	1 to 1000	1 to 1000	1 to 1000	1 to 1000	1 to 1000	1 to 1000	1 to 1000	1 to 1000	0.001 to 1	0.001 to 1	1	0.001 to 1	0.001 to 1	0.001 to 1	0.001 to 1	1	0.001 to 1	0.001 to 1
COc1cc(Oc2ncccc2-c2ccncc2)cc(-n2cncn2)c1 [Compound 12, 2-(3-methoxy-5-(1H-1,2,4-triazol-1-yl)phenoxy)-3,4′-bipyridine]	1 to 1000	1 to 1000	1 to 1000	1 to 1000	1 to 1000	1 to 1000	1 to 1000	1 to 1000	0.001 to 1	0.001 to 1	1	0.001 to 1	0.001 to 1	0.001 to 1	0.001 to 1	1	0.001 to 1	0.001 to 1

Further lines, with some results ahead:

EC50 [4] [nM]	EC50 [7] [nM]	EC50 [8] [nM]	EC50 [10] [nM]	EC50 [13] [nM]	EC50 [14] [nM]	EC50 [16] [nM]	EC50 [17] [nM]	SMILES	minimal effective concentration [1] [µM]	minimal effective concentration [2] [µM]	minimal effective concentration (RPEMYC^H2B-GFP cells [3]) [µM]	minimal effective concentration [5] [µM]	minimal effective concentration (SW480) [µM]	minimal effective concentration [6] [µM]	minimal effective concentration [9] [µM]	minimal effective concentration (RPEMYC^H2B-GFP cells [11]) [µM]	minimal effective concentration [12] [µM]	minimal effective concentration [15] [µM]
1 to 1000	1 to 1000	1 to 1000	1 to 1000	1 to 1000	1 to 1000	1 to 1000	1 to 1000	COc1cc(NC(C)=O)cc(Oc2ncccc2-c2ccncc2)c1 [Compound 13, N-(3-([3,4′-bipyridin]-2-yloxy)-5-methoxyphenyl)acetamide]	0.001 to 1	0.001 to 1	1	0.001 to 1	0.001 to 1	0.001 to 1	0.001 to 1	1	0.001 to 1	0.001 to 1
1 to 1000	1 to 1000	1 to 1000	1 to 1000	1 to 1000	1 to 1000	1 to 1000	1 to 1000	COc1cc(OC)cc(Oc2ncccc2-c2ccncc2)c1 [Compound 14, 2-(3,5-dimethoxyphenoxy)-3,4′-bipyridine]	0.001 to 1	0.001 to 1	1	0.001 to 1	0.001 to 1	0.001 to 1	0.001 to 1	1	0.001 to 1	0.001 to 1
1 to 1000	1 to 1000	1 to 1000	1 to 1000	1 to 1000	1 to 1000	1 to 1000	1 to 1000	COc1cc(Oc2ncccc2-c2ccnc(N)n2)cc(-n2cccn2)c1 [Compound 26, 4-(2-(3-methoxy-5-(1H-pyrazol-1-yl)phenoxy)pyridin-3-yl)pyrimidin-2-amine]	0.001 to 1	0.001 to 1	1	0.001 to 1	0.001 to 1	0.001 to 1	0.001 to 1	1	0.001 to 1	0.001 to 1

Source: patent US20240262803A1, “COMPOUNDS, COMPOSITIONS AND METHODS OF TREATING DISORDERS” (Chungdu Anticancer Bioscience Ltd, priority 2021, published 2024)
